# Laboratory results published in US10941157B2, “Pesticidal compositions and uses thereof” (Gilead Apollo, LLC, priority 2015, dated 2021).
# Like-named read-outs stand apart in the source and are kept apart here.
# Tests used:
# Format in all cases: cell-based
# Botrtyis cinerea (Bc) = experiment: In vitro pathogen growth inhibition assay, Bc; conditions: 48 h
# Protocol: (§1) A growth inhibition assay was conducted to determine the ability of compounds to control the growth of fungal pathogens, such as Botrtyis cinerea (Bc), Collectotrichum graminicola (Cg), Diplodia maydis (Dm), Fusarium moniliforme (Fm), Fusarium virguliforme (Fv), Phytophthora capsici (Pc), Rhizoctonia solani (Rs), and Septoria tritici (St). The compounds listed in Table 1 were each dissolved in DMSO at 2.5 mg/ml to produce compound stock solutions (“stocks”). […] Negative controls on each plate included 2% DMSO, water, and a blank (media+2% DMSO). Fungal spores were isolated from previously sub-cultured plates of Botrtyis cinerea (Bc), Collectotrichum graminicola (Cg), Diplodia maydis (Dm), Fusarium moniliforme (Fm), Fusarium virguliforme (Fv), Phytophthora capsici (Pc), and Septoria tritici (St). The isolated spores were diluted to individual concentrations with a 17% V8 liquid media. For Rhizoctonia solani (Rs), 1.5 mm mycelial plugs were used in place of spores and ¼ Potato Dextrose Broth (PDB) was used for dilution. The spore concentrations and plug sizes were based on growth curves generated at 48 hours for each pathogen. In a second 96-well plate, the spores or mycelial plugs, media, diluted compound solutions, and controls were combined. Once the compound was added, a true final concentration of compound in each well was measured by an OD600 reading, which adjusted for any compound precipitation that might have occurred in the well. Plate readings were repeated at both 24 and 48 hours. The blank negative control was used as a background subtraction. Additional visual ratings were performed at both 24 and 48 hours for checking on precipitation and confirming efficacy. […] Both tables list the concentration of each compound that was sufficient to ≥90% inhibition of growth for each of the fungal pathogens listed above. In addition, some of compounds were tested in a yeast growth inhibition assay for Saccharomyces cerevisiae (Sc). Table 2 lists the concentration of the tested compound that was sufficient to ≥75% inhibition of Saccharomyces cerevisiae (Sc).
# Diplodia maydis (Dm) = experiment: In vitro pathogen growth inhibition assay, Dm; conditions: Stenocarpella maydis, 48 h
# Protocol: as §1
# Rhizoctonia solani (Rs) = experiment: In vitro pathogen growth inhibition assay, Rs (mycelial plugs); conditions: for IC90: Rhizoctonia solani, 48 h
# Protocol: as §1
# [1] = tested on: Collectotrichum graminicola (Cg); experiment: In vitro pathogen growth inhibition assay, Cg; conditions: 48 h
# Protocol: as §1
# Septoria tritici (St) = experiment: In vitro pathogen growth inhibition assay, St; conditions: for IC90: Zymoseptoria tritici, 48 h
# Protocol: as §1
# [2] = tested on: Phytophthora capsici (Pc); experiment: In vitro pathogen growth inhibition assay, Pc; conditions: 48 h
# Protocol: as §1
# [3] = tested on: Fusarium moniliforme (Fm); experiment: In vitro pathogen growth inhibition assay, Fm; conditions: Fusarium verticillioides
# Protocol: as §1
# [4] = tested on: Fusarium virguliforme (Fv); experiment: In vitro pathogen growth inhibition assay, Fv
# Protocol: as §1
# [5] = ≥90% inhibition, 48 hours vs 2% DMSO control, read-out: Compound Concentration (ppm) sufficient for ≥90% inhibition of growth, Bc
# [6] = ≥90% inhibition, 48 hours vs 2% DMSO control, read-out: Compound Concentration (ppm) sufficient for ≥90% inhibition of growth, Dm
# [7] = ≥90% inhibition, mycelial plugs, 48 hours vs 2% DMSO control, read-out: Compound Concentration (ppm) sufficient for ≥90% inhibition of growth, Rs
# [8] = ≥90% inhibition, 48 hours vs 2% DMSO control, read-out: Compound Concentration (ppm) sufficient for ≥90% inhibition of growth, Cg
# [9] = ≥90% inhibition, 48 hours vs 2% DMSO control, read-out: Compound Concentration (ppm) sufficient for ≥90% inhibition of growth, St
# [10] = ≥90% inhibition, 48 hours vs 2% DMSO control, read-out: Compound Concentration (ppm) sufficient for ≥90% inhibition of growth, Pc
# [11] = ≥90% inhibition, 48 hours vs 2% DMSO control, read-out: Compound Concentration (ppm) sufficient for ≥90% inhibition of growth, Fm
# [12] = ≥90% inhibition, 48 hours vs 2% DMSO control, read-out: Compound Concentration (ppm) sufficient for ≥90% inhibition of growth, Fv
# [13] = ≥90% growth inhibition, 48 hours, vs 2% DMSO control, read-out: Compound Concentration (ppm) sufficient for ≥90% inhibition of Bc
# [14] = ≥90% growth inhibition, 48 hours, vs 2% DMSO control, read-out: Compound Concentration (ppm) sufficient for ≥90% inhibition of Dm
# [15] = ≥90% growth inhibition, mycelial plugs, 48 hours, vs 2% DMSO control, read-out: Compound Concentration (ppm) sufficient for ≥90% inhibition of Rs
# [16] = ≥90% growth inhibition, 48 hours, vs 2% DMSO control, read-out: Compound Concentration (ppm) sufficient for ≥90% inhibition of Cg
# [17] = ≥90% growth inhibition, 48 hours, vs 2% DMSO control, read-out: Compound Concentration (ppm) sufficient for ≥90% inhibition of St
# [18] = ≥90% growth inhibition, 48 hours, vs 2% DMSO control, read-out: Compound Concentration (ppm) sufficient for ≥90% inhibition of Pc
# [19] = ≥90% growth inhibition, 48 hours, vs 2% DMSO control, read-out: Compound Concentration (ppm) sufficient for ≥90% inhibition of Fm
# [20] = ≥90% growth inhibition, 48 hours, vs 2% DMSO control, read-out: Compound Concentration (ppm) sufficient for ≥90% inhibition of Fv
# [21] = ≥90% growth inhibition, mycelial plugs, 48 hours, vs 2% DMSO control
# [22] = ≥90% growth inhibition, 48 hours, vs 2% DMSO control
IC90 (Botrtyis cinerea (Bc); [5]) [µg/mL],IC90 (Diplodia maydis (Dm); [6]) [µg/mL],IC90 (Rhizoctonia solani (Rs); [7]) [µg/mL],"IC90 [1, 8] [µg/mL]",IC90 (Septoria tritici (St); [9]) [µg/mL],"IC90 [2, 10] [µg/mL]","IC90 [3, 11] [µg/mL]","IC90 [4, 12] [µg/mL]",SMILES,other results
2,10,2,10,> 50,> 50,0.4,0.4,COCCO[C@@H](Cn1c(=O)n([C@H](C)C(=O)N2CCCC2)c(=O)c2c(C)c(-n3nccn3)sc21)c1cc(F)ccc1OC [Compound I-140],
> 0.08,0.4,0.08,0.4,≥ 10,> 50,0.08,0.4,CCOC(=O)C(C)(C)n1c(=O)c2c(C)c(-n3nccn3)sc2n(C[C@H](OCCO)c2cc(F)ccc2OC)c1=O [Compound I-085],
2,≥ 10,10,50,> 50,> 50,2,10,COc1ccc(F)cc1[C@H](Cn1c(=O)n(C(C)(C)C(N)=O)c(=O)c2c(C)c(-n3cccn3)sc21)O[C@H]1CC[C@@H](O)CC1 [Compound I-150],
10,50,≥ 2,10,> 50,> 50,2,10,COc1ccc(F)cc1[C@H](Cn1c(=O)n(C(C)(C)C(=O)N2CCCC2)c(=O)c2c(C)c(-n3cccn3)sc21)OC[C@H](C)O [Compound I-161],
2,10,2,2,> 50,50,0.4,2,COc1ccc(F)cc1[C@H](Cn1c(=O)n(C(C)(C)C(=O)NC(C)C)c(=O)c2c(C)c(-n3cccn3)sc21)OCCO [Compound I-129],
,,,,,,,,COc1ccc(F)cc1[C@H](Cn1c(=O)n(C(C)(C)C(=O)N2CCCC2)c(=O)c2c(C)c(-n3cccn3)sc21)OCCC#N [Compound I-194],"IC90 (Botrtyis cinerea (Bc); [13]): 10 µg/mL; IC90 (Diplodia maydis (Dm); [14]): 50 µg/mL; IC90 (Rhizoctonia solani (Rs); [15]): 10 µg/mL; IC90 [1, 16]: 50 µg/mL; IC90 (Septoria tritici (St); [17]): > 50 µg/mL; IC90 [2, 18]: > 50 µg/mL; IC90 [3, 19]: 2 µg/mL; IC90 [4, 20]: ≥ 10 µg/mL"
,,,,,,,,CCNC(=O)C(C)(C)n1c(=O)c2c(C)c(-n3nccn3)sc2n(C[C@@H](O)c2cc(F)ccc2OC)c1=O [Compound I-291],"IC90 (Botrtyis cinerea (Bc); concentration sufficient to ≥90% inhibition of growth, 48 hours vs 2% DMSO control, read-out: Compound Concentration (ppm) for ≥90% inhibition, Bc): 50 µg/mL; IC90 (Diplodia maydis (Dm); concentration sufficient to ≥90% inhibition of growth, 48 hours vs 2% DMSO control, read-out: Compound Concentration (ppm) for ≥90% inhibition, Dm): 50 µg/mL; IC90 (Rhizoctonia solani (Rs); concentration sufficient to ≥90% inhibition of growth, 48 hours vs 2% DMSO control, read-out: Compound Concentration (ppm) for ≥90% inhibition, Rs): 2 µg/mL; IC90 ([1]; concentration sufficient to ≥90% inhibition of growth, 48 hours vs 2% DMSO control, read-out: Compound Concentration (ppm) for ≥90% inhibition, Cg): > 50 µg/mL; IC90 (Septoria tritici (St); concentration sufficient to ≥90% inhibition of growth, 48 hours vs 2% DMSO control, read-out: Compound Concentration (ppm) for ≥90% inhibition, St): > 50 µg/mL; IC90 ([2]; concentration sufficient to ≥90% inhibition of growth, 48 hours vs 2% DMSO control, read-out: Compound Concentration (ppm) for ≥90% inhibition, Pc): > 50 µg/mL; IC90 ([3]; concentration sufficient to ≥90% inhibition of growth, 48 hours vs 2% DMSO control, read-out: Compound Concentration (ppm) for ≥90% inhibition, Fm): 10 µg/mL; IC90 ([4]; concentration sufficient to ≥90% inhibition of growth, 48 hours vs 2% DMSO control, read-out: Compound Concentration (ppm) for ≥90% inhibition, Fv): 50 µg/mL"
,,,,,,,,COc1ccc(F)cc1[C@H](Cn1c(=O)n([C@H](C)C(=O)N(C)C(C)C)c(=O)c2c(C)c(-n3cccn3)sc21)OCCO [Compound I-250],"IC90 (Botrtyis cinerea (Bc); [13]): 2 µg/mL; IC90 (Diplodia maydis (Dm); [14]): > 50 µg/mL; IC90 (Rhizoctonia solani (Rs); [15]): 2 µg/mL; IC90 [1, 16]: 10 µg/mL; IC90 (Septoria tritici (St); [17]): > 50 µg/mL; IC90 [2, 18]: > 50 µg/mL; IC90 [3, 19]: 2 µg/mL; IC90 [4, 20]: 2 µg/mL"
≥ 0.4,≥ 0.4,≥ 0.4,≥ 0.4,≥ 10,50,0.08,0.4,COc1ccc(F)cc1[C@H](Cn1c(=O)n(C(C)(C)C(=O)NC(C)C)c(=O)c2c(C)c(-n3nccn3)sc21)OC[C@H](C)O [Compound I-066],
,,,,,,,,CCc1ccc(F)cc1CCn1c(=O)n(C(C)(C)C(=O)NC(C)C)c(=O)c2c(C)c(-n3nccn3)sc21 [Compound I-326],"IC90 (Botrtyis cinerea (Bc); [13]): 2 µg/mL; IC90 (Diplodia maydis (Dm); [14]): 2 µg/mL; IC90 (Rhizoctonia solani (Rs); [15]): 10 µg/mL; IC90 [1, 16]: 2 µg/mL; IC90 (Septoria tritici (St); [17]): > 50 µg/mL; IC90 [2, 18]: > 50 µg/mL; IC90 [3, 19]: 0.08 µg/mL; IC90 [4, 20]: 0.08 µg/mL"
,,,,,,,,Cc1c(-n2nccn2)sc2c1c(=O)n(C(C)(C)C(=O)NC(C)C)c(=O)n2C[C@H](OCCO)c1cc(F)ccc1O [Compound I-271],"IC90 (Botrtyis cinerea (Bc); [13]): 10 µg/mL; IC90 (Diplodia maydis (Dm); [14]): 50 µg/mL; IC90 (Rhizoctonia solani (Rs); [15]): 2 µg/mL; IC90 [1, 16]: ≥ 10 µg/mL; IC90 (Septoria tritici (St); [17]): > 50 µg/mL; IC90 [2, 18]: 50 µg/mL; IC90 [3, 19]: 2 µg/mL; IC90 [4, 20]: 10 µg/mL"
2,≥ 2,≥ 2,2,≥ 50,50,0.4,≥ 0.4,COc1ccc(F)cc1[C@H](Cn1c(=O)n(C(C)(C)C(=O)N2CCCC2)c(=O)c2c(C)c(-n3nccn3)sc21)OCCO [Compound I-130],
,,,,,,,,CCOC(=O)c1sc2c(c1C)c(=O)n(C(C)(C)C(=O)NC(C)C)c(=O)n2C[C@H](OCC(C)(C)C#N)c1cc(F)ccc1OC [Compound I-321],"IC90 (Botrtyis cinerea (Bc); [13]): 0.4 µg/mL; IC90 (Diplodia maydis (Dm); [14]): ≥ 0.4 µg/mL; IC90 (Rhizoctonia solani (Rs); [15]): 2 µg/mL; IC90 [1, 16]: 0.4 µg/mL; IC90 (Septoria tritici (St); [17]): > 50 µg/mL; IC90 [2, 18]: > 50 µg/mL; IC90 [3, 19]: 0.08 µg/mL; IC90 [4, 20]: 0.4 µg/mL"
0.4,≥ 0.4,10,2,> 10,> 50,0.08,0.4,COc1ccc(F)cc1[C@H](Cn1c(=O)n(C(C)(C)C(=O)NC(C)C)c(=O)c2c(C)c(-c3ncco3)sc21)OC1CCOCC1 [Compound I-015],
0.4,0.08,0.08,0.08,> 10,> 50,0.08,≥ 0.08,COc1ccc(F)cc1[C@H](Cn1c(=O)n(C(C)(C)C(=O)N2CCCC2)c(=O)c2c(C)c(-n3nccn3)sc21)OC(C)C [Compound I-023],
,,,,,,,,CCOC(=O)c1sc2c(c1C)c(=O)n([C@H](C)C(=O)NC(C)C)c(=O)n2C[C@H](OCCC#N)c1cc(F)ccc1OC [Compound I-330],Compound Concentration (ppm) sufficient for ≥90% inhibition of Rs (Rhizoctonia solani (Rs); [21]): 2 ppm; Compound Concentration (ppm) sufficient for ≥90% inhibition of St (Septoria tritici (St); [22]): >50 ppm
,,,,,,,,CCOC(=O)c1sc2c(c1C)c(=O)n(C(C)(C)C(=O)NC(C)C)c(=O)n2C[C@H](OCCC#N)c1cc(F)ccc1OC [Compound I-300],Compound Concentration (ppm) sufficient for ≥90% inhibition of Rs (Rhizoctonia solani (Rs); [21]): 0.08 ppm; Compound Concentration (ppm) sufficient for ≥90% inhibition of St (Septoria tritici (St); [22]): >50 ppm
